Where two headings read alike, the source gives them in different places.
What was measured:
[1] = tested on: SR cells (NPM-ALK, human anaplastic large cell lymphoma cells); assay: Proliferation inhibition (IC50) in SR cells, CCK8 (WST) reagent; assay type: cell-based; conditions: 72 h
Protocol: (§1) The ALK gene rearrangement positive cell line used was SR cells (NPM-ALK, human anaplastic large cell lymphoma cells). MDA-MB231 was a triple-negative breast cancer cell. Both SR cells and MDA-MB231 cells were purchased from ATCC.
The tumor cell line used was daily cultured in a 37° C. incubator containing 5% CO2. The medium was RPMI1640 supplemented with 10% FCS and Penicillin-Streptomycin.
(§2) The IC50 of the compound of the present disclosure was determined using Promega's Cell Titer Blue, Cell Titer GLO or commercially available WST reagents. The specific steps were as follows: the cells were seeded in a 96-well plate containing 100 microliters of RPMI medium containing serum at a number of 2000 cells/well. On the second day, the original drug and the compound of the present disclosure were serially diluted and added to the cells. After 72 hours of treatment with the compound of the present disclosure, the cell activity detection reagent was added to the culture medium for cell activity determination according to the instructions. The negative control was DMSO, and the positive control was the original drug, and the cells were treated in the same manner as the compound of the present disclosure. The growth inhibition of the compounds of the present disclosure on cells was plotted by Prism Graphpad software and the IC50 of the compounds of the present disclosure was counted from it.
We conducted dose-dependent experiments on the designed and synthesized compounds of the present disclosure in SR cells. […] The cells were treated with different concentrations of compounds (starting at 10 μM, 3 times dilution factor, 10 concentrations). After 72 hours, the cells were detected using CCK8 reagent (WST).

[2] = target: T1, ALK protein (Homo sapiens, UniProt Q9UM73); assay: Western blot of ALK protein degradation in SR cells; assay type: cell-based
T1 construct: We studied the total ALK protein in the anaplastic large cell lymphoma cell line SR; host or cells: SR cells (human anaplastic large cell lymphoma); the other entry of the earlier key: NPM1 (P06748, Nucleophosmin)
Protocol: as §1, with “ATCC. The 293T cells overexpressing EML4-ALK G1202R were the cells constructed and verified for correct expression by this laboratory.” for “ATCC.”
Tumor cells were seeded in a 24-well plate containing 1 ml of RPMI1640 medium at 1.5-3×10^5 cells/well. The next day, the cells were treated with different concentrations of drugs. After 16 hours, the supernatant was removed and the cells were washed with PBS. The cells were placed on ice and the cells were treated with RIPA protein lysate containing Halt protease and phosphatase inhibitors. The lysate was centrifuged at 10000RPM at 4° C. for 10 minutes, and the supernatant was collected. The same amount of protein was added to the 4×SDS sample solution, denatured at 95° C. for 5 minutes and freezen to −20° C., or protein electrophoresis was directly performed. GenScript, a 4-20% gradient protein precast gel was used as the electrophoresis gel. The electrophoresis tank and related components were purchased from Bio-rad, and the electrophoresis conditions were equal pressure 120 v for 2 hours. PVDF membrane was used for the transfer membrane, and the transfer membrane system was placed on ice with an equal current of 400 mA for one hour. After transferring the membrane, it was sealed with TBST+5% milk powder for half an hour. For the specific steps of immunoblotting, refer to the antibody instructions of Cell Signaling Technology.
DC50 (the drug concentration corresponding to protein degradation to 50%) calculation: according to the gray value of the Western blotting band after the drug is processed, the relationship curve between the drug concentration and the gray value is fitted by Prism GraphPad software to calculate the drug concentration range corresponding half of the gray value.
The cells with different concentrations (0, 10, 50, 100, 500 nM) of Brigatinib were first treated in SR cells for 16 hours. Western blotting was used on cell lysate to detect the effect of Brigatinib on the content of ALK protein (FIG. 2).

[3] = tested on: triple-negative breast cancer MDA-MB-231 cell line; assay: Proliferation inhibition (IC50) in MDA-MB-231 cell line; assay type: cell-based; conditions: Homo sapiens, WST reagent, 72 hours, read-out: IC50 (half inhibitory concentration) in MDA-MB-231 cell line
Protocol: as §1, with “ATCC. The 293T cells overexpressing EML4-ALK G1202R were the cells constructed and verified for correct expression by this laboratory.” for “ATCC.”
as §2

[4] = tested on: 293T cells overexpressing EML4-ALK G1202R; assay: Proliferation inhibition (IC50) in 293T cells overexpressing EML4-ALK G1202R; assay type: cell-based; conditions: Homo sapiens, HEK-293T; WST reagent, 72 hours; read-out: IC50 (half inhibitory concentration) in 293T cells overexpressing EML4-ALK G1202R
Protocol: as §2

[5] = tested on: lung cancer patients; conditions: cited from earlier work
[6] = SR cells, WST reagent, 72 hours, read-out: IC50 (half inhibitory concentration), Brigatinib series in lymphoma cell lines
[7] = 16 hours, concentration range at half of the gray value, read-out: DC50 (half degradation concentration), Brigatinib series in lymphoma cell lines
[8] = read-out: IC50 (half inhibitory concentration), Alectinib series in lymphoma cell lines, SR cells, WST reagent, 72 hours
[9] = read-out: DC50 (half degradation concentration), Alectinib series in lymphoma cell lines, 16 hours, concentration range at half of the gray value

T1 sequence (Q9UM73 with tags, fused parts or gaps): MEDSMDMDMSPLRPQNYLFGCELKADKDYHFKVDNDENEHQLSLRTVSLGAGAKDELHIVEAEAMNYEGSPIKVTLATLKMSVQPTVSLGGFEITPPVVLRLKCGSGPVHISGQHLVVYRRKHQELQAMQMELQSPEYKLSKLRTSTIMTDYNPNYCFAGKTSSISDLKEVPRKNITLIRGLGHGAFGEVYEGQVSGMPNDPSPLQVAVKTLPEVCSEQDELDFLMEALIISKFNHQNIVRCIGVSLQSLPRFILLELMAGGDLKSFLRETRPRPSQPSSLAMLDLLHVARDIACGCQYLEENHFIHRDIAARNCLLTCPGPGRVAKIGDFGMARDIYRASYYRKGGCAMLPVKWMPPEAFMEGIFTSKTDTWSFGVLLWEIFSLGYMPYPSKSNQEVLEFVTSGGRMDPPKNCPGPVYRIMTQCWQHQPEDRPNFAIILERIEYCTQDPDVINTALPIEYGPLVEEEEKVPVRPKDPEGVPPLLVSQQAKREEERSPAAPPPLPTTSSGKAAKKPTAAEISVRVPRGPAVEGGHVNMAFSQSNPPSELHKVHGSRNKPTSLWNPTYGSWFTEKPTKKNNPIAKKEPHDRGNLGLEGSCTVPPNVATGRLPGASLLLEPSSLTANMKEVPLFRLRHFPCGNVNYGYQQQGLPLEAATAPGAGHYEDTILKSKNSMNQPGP

IC50 [1, 6] [nM] | DC50 [2, 7] [nM] | IC50 [3] [nM] | concentration from which a degradation effect on ALK protein is shown [2] | SMILES | other results
1.2 ± 0.3 | 0.5 to 5 | 4.9 ± 1.04 | – | COc1cc(N2CCC(N3CCN(CCSc4cccc5c4CN(C4CCC(=O)NC4=O)C5=O)CC3)CC2)ccc1Nc1ncc(Cl)c(Nc2ccccc2P(C)(C)=O)n1 (stereo not shown) [SIAIS352011, 3-(4-((2-(4-(1-(4-((5-chloro-4-((2-(dimethylphosphono)phenyl)amino)pyrimidin-2-yl)amino)-3-methoxyphenyl)piperidin-4-yl)piperazin-1-yl)ethyl)thio)-1-oxoisoindolin-2-yl)piperidine-2,6-dione] | –
2.1 ± 1.2 | 0.05 to 0.5 | 4.5 ± 0.5 | – | COc1cc(N2CCC(N3CCN(CCCCCc4cccc5c4CN(C4CCC(=O)NC4=O)C5=O)CC3)CC2)ccc1Nc1ncc(Cl)c(Nc2ccccc2P(C)(C)=O)n1 (stereo not shown) [SIAIS352008, 3-(4-(5-(4-(1-(4-((5-chloro-4-((2-(dimethylphosphono)phenyl)amino)pyrimidin-2-yl)amino)-3-methoxyphenyl)piperidin-4-yl)piperazin-1-yl)pentyl)-1-oxoisoindolin-2-yl)piperidine-2,6-dione] | –
1.1 ± 0.3 | – | 75 ± 58 | – | COc1cc(N2CCC(N3CCN(CCCCc4cccc5c4CN(C4CCC(=O)NC4=O)C5=O)CC3)CC2)ccc1Nc1ncc(Cl)c(Nc2ccccc2P(C)(C)=O)n1 (stereo not shown) [SIAIS352059, 3-(4-(4-(4-(1-(4-((5-chloro-4-((2-(dimethylphosphono)phenyl)amino)pyrimidin-2-yl)amino)-3-methoxyphenyl)piperidin-4-yl)piperazin-1-yl)butyl)-1-oxoisoindolin-2-yl)piperidine-2,6-dione] | –
~1 | – | 22.5 ± 2.26 | less than 0.005 nM | COc1cc(N2CCC(N3CCN(CCCC#Cc4cccc5c4CN(C4CCC(=O)NC4=O)C5=O)CC3)CC2)ccc1Nc1ncc(Cl)c(Nc2ccccc2P(C)(C)=O)n1 (stereo not shown) [SIAIS262039, 3-(4-(5-(4-(1-(4-((5-chloro-4-((2-(dimethylphosphono)phenyl)amino)pyrimidin-2-yl)amino)-3-methoxyphenyl)piperidin-4-yl)piperazin-1-yl)pent-1-yn-1-yl)-1-oxoisoindolin-2-yl)piperidine-2,6-dione] | –
– | – | – | 0.5 nM | CCc1cc2c(cc1N1CCC(N3CCN(C(=O)COc4cccc5c4C(=O)N(C4CCC(=O)NC4=O)C5=O)CC3)CC1)C(C)(C)c1[nH]c3cc(C#N)ccc3c1C2=O (stereo not shown) [SIAIS293010, 8-(4-(4-(2-((2-(2,6-dioxopiperidin-3-yl)-1,3-dioxoisoindolin-4-yl)oxy)acetyl)piperazin-1-yl)piperidin-1-yl)-9-ethyl-6,6-dimethyl-11-oxo-6,11-dihydro-5H-benzo[b]carbazole-3-carbonitrile] | IC50 [1, 8]: 2 nM; DC50 [2, 9]: 0.05 to 0.5 nM
2 | 0.05 to 0.5 | – | 5 nM | COc1cc(N2CCC(N3CCN(CCCCCCCC#Cc4cccc5c4CN(C4CCC(=O)NC4=O)C5=O)CC3)CC2)ccc1Nc1ncc(Cl)c(Nc2ccccc2P(C)(C)=O)n1 (stereo not shown) [SIAIS293018, 3-(4-(9-(4-(1-(4-((5-chloro-4-((2-(dimethylphosphono)phenyl)amino)pyrimidin-2-yl)amino)-3-methoxyphenyl)piperidin-4-yl)piperazin-1-yl)non-1-yn-1-yl)-1-oxoisoindolin-2-yl)piperidine-2,6-dione] | –

The next lines start with the compound.

SMILES | IC50 [1, 6] [nM] | DC50 [2, 7] [nM] | IC50 [3] [nM] | concentration from which a degradation effect on ALK protein is shown [2] | other results
COc1cc(N2CCC(N3CCN(Cc4ccc(CSc5cccc6c5CN(C5CCC(=O)NC5=O)C6=O)cc4)CC3)CC2)ccc1Nc1ncc(Cl)c(Nc2ccccc2P(C)(C)=O)n1 (stereo not shown) [SIAIS293189, 3-(4-((4-((4-(1-(4-((5-chloro-4-((2-(dimethylphosphono)phenyl)amino)pyrimidin-2-yl)amino)-3-methoxyphenyl)piperidin-4-yl)piperazin-1-yl)methyl)benzyl)thio)-1-oxoisoindolin-2-yl)piperidine-2,6-dione] | 0.1 ± 0.02 | 0.05 to 0.5 | – | – | IC50 [4]: 99.5 ± 8.62 nM
COc1cc(N2CCC(NCCCC#Cc3cccc4c3CN(C3CCC(=O)NC3=O)C4=O)CC2)ccc1Nc1ncc(Cl)c(Nc2ccccc2P(C)(C)=O)n1 (stereo not shown) [SIAIS293093, 3-(4-(5-((1-(4-((5-chloro-4-((2-(dimethylphosphono)phenyl)amino)pyrimidin-2-yl)amino)-3-methoxyphenyl)piperidin-4-yl)amino)pent-1-yn-1-yl)-1-oxoisoindolin-2-yl)piperidine-2,6-dione] | 1.3 | – | 191 ± 106 | – | –
COc1cc(N2CCC(N3CCN(C)CC3)CC2)ccc1Nc1ncc(Cl)c(Nc2ccccc2P(C)(C)=O)n1 [Brigatinib, reference compound] | 6.9 | – | 381 ± 41 | – | IC50 [4]: 473 ± 129 nM; control rate [5]: 86%; effective rate [5]: 55%; degradation effect on ALK protein ([2]; 16 hours, concentrations up to 500 nM): no degradation effect
CCc1cc2c(cc1N1CCC(N3CCN(C(=O)CNc4cccc5c4CN(C4CCC(=O)NC4=O)C5=O)CC3)CC1)C(C)(C)c1[nH]c3cc(C#N)ccc3c1C2=O (stereo not shown) [SIAIS262091, 8-(4-(4-{(2-(2,6-dioxopiperidin-3-yl)-1-oxoisoindolin-4-yl)aminoacetyl)piperazin-1-yl)piperidin-1-yl)-9-ethyl-6,6-dimethyl-11-oxo-6,11-dihydro-5H-benzo[b]carbazole-3-carbonitrile] | – | – | – | less than 0.005 nM | IC50 [1, 8]: ~0.34 nM; DC50 [2, 9]: 0.05 to 0.5 nM

— patent US12390532B2, “ALK protein regulator and anti-tumor application thereof” (SHANGHAITECH UNIVERSITY, priority 2019, dated 2025)
